According to patent US10287297B2, “Epoxyazulene derivatives useful for treating cancer and diabetes” (The United States of America, as represented by the …, priority 2015, dated 2019):

Legend:
Format in all cases: cell-based
[1] = tested on: CCRF-CEM; assay: NCI 60 cell assay, leukemia CCRF-CEM; settings: Homo sapiens, 48 h, drug exposure two days, SRB endpoint, read-out: GI-50 value
Method: (§1) Samples were tested in the standard National Cancer Institute 60-cell line protocol. First, they were tested against all 60 cell lines in a single final concentration of 10 micromolar. Then, they were separately tested in five 10-fold dilutions. The drug exposure was two days, with an SRB endpoint.

[2] = tested on: HL-60(TB); assay: NCI 60 cell assay, leukemia HL-60(TB); settings: Homo sapiens, 48 h; HL-60(TB) (leukemia); drug exposure two days, SRB endpoint; read-out: GI-50 value
Method: as §1

[3] = tested on: MOLT-4; assay: NCI 60 cell assay, leukemia MOLT-4; settings: Homo sapiens, 48 h; MOLT-4 (leukemia); drug exposure two days, SRB endpoint; read-out: GI-50 value
Method: as §1

[4] = tested on: SR; assay: NCI 60 cell assay, leukemia SR; settings: Homo sapiens, 48 h, drug exposure two days, SRB endpoint, read-out: GI-50 value
Method: as §1

[5] = tested on: A549/ATCC; assay: NCI 60 cell assay, NSCLC A549/ATCC; settings: Homo sapiens, 48 h, drug exposure two days, SRB endpoint, read-out: GI-50 value
Method: as §1

[6] = tested on: EKVX; assay: NCI 60 cell assay, NSCLC EKVX; settings: Homo sapiens, 48 h, drug exposure two days, SRB endpoint, read-out: GI-50 value
Method: as §1

[7] = tested on: HOP-62; assay: NCI 60 cell assay, NSCLC HOP-62; settings: Homo sapiens, 48 h; HOP-62 (NSCLC); drug exposure two days, SRB endpoint; read-out: GI-50 value
Method: as §1

[8] = tested on: HCT-15; assay: NCI 60 cell assay, colon HCT-15; settings: Homo sapiens, 48 h; HCT-15 (colon); drug exposure two days, SRB endpoint; read-out: GI-50 value
Method: as §1

[9] = tested on: SF-268; assay: NCI 60 cell assay, CNS SF-268; settings: Homo sapiens, 48 h; SF-268 (CNS); drug exposure two days, SRB endpoint; read-out: GI-50 value
Method: as §1

[10] = tested on: SF-539; assay: NCI 60 cell assay, CNS SF-539; settings: Homo sapiens, 48 h; SF-539 (CNS); drug exposure two days, SRB endpoint; read-out: GI-50 value
Method: as §1

[11] = tested on: SNB-19; assay: NCI 60 cell assay, CNS SNB-19; settings: Homo sapiens, 48 h; SNB-19 (CNS); drug exposure two days, SRB endpoint; read-out: GI-50 value
Method: as §1

[12] = tested on: SNB-75; assay: NCI 60 cell assay, CNS SNB-75; settings: Homo sapiens, 48 h; SNB-75 (CNS); drug exposure two days, SRB endpoint; read-out: GI-50 value
Method: as §1

[13] = tested on: LOX IMVI; assay: NCI 60 cell assay, melanoma LOX IMVI; settings: Homo sapiens, 48 h, drug exposure two days, SRB endpoint, read-out: GI-50 value
Method: as §1

[14] = tested on: MALME-3M; assay: NCI 60 cell assay, melanoma MALME-3M; settings: Homo sapiens, 48 h; MALME-3M (melanoma); drug exposure two days, SRB endpoint; read-out: GI-50 value
Method: as §1

[15] = tested on: M14; assay: NCI 60 cell assay, melanoma M14; settings: Homo sapiens, 48 h, drug exposure two days, SRB endpoint, read-out: GI-50 value
Method: as §1

[16] = tested on: SK-MEL-2; assay: NCI 60 cell assay, melanoma SK-MEL-2; settings: Homo sapiens, 48 h; SK-MEL-2 (melanoma); drug exposure two days, SRB endpoint; read-out: GI-50 value
Method: as §1

[17] = tested on: UACC-62; assay: NCI 60 cell assay, melanoma UACC-62; settings: Homo sapiens, 48 h; UACC-62 (melanoma); drug exposure two days, SRB endpoint; read-out: GI-50 value
Method: as §1

[18] = tested on: OVCAR-8; assay: NCI 60 cell assay, ovarian OVCAR-8; settings: Homo sapiens, 48 h; OVCAR-8 (ovarian); drug exposure two days, SRB endpoint; read-out: GI-50 value
Method: as §1

[19] = tested on: NCI/ADR-RES; assay: NCI 60 cell assay, ovarian NCI/ADR-RES; settings: Homo sapiens, 48 h, drug exposure two days, SRB endpoint, read-out: GI-50 value
Method: as §1

[20] = tested on: SK-OV-3; assay: NCI 60 cell assay, ovarian SK-OV-3; settings: Homo sapiens, 48 h; SK-OV-3 (ovarian); drug exposure two days, SRB endpoint; read-out: GI-50 value
Method: as §1

[21] = tested on: 786-0; assay: NCI 60 cell assay, renal 786-0; settings: Homo sapiens, 48 h; 786-0 (renal); drug exposure two days, SRB endpoint; read-out: GI-50 value
Method: as §1

[22] = tested on: CAKI-1; assay: NCI 60 cell assay, renal CAKI-1; settings: Homo sapiens, 48 h; CAKI-1 (renal); drug exposure two days, SRB endpoint; read-out: GI-50 value
Method: as §1

[23] = tested on: RXF 393; assay: NCI 60 cell assay, renal RXF 393; settings: Homo sapiens, 48 h; RXF 393 (renal); drug exposure two days, SRB endpoint; read-out: GI-50 value
Method: as §1

[24] = tested on: SN12C; assay: NCI 60 cell assay, renal SN12C; settings: Homo sapiens, 48 h, drug exposure two days, SRB endpoint, read-out: GI-50 value
Method: as §1

[25] = tested on: TK-10; assay: NCI 60 cell assay, renal TK-10; settings: Homo sapiens, 48 h; TK-10 (renal); drug exposure two days, SRB endpoint; read-out: GI-50 value
Method: as §1

[26] = tested on: MDA-MB-231/ATCC; assay: NCI 60 cell assay, breast MDA-MB-231/ATCC; settings: Homo sapiens, 48 h; MDA-MB-231/ATCC (breast); drug exposure two days, SRB endpoint; read-out: GI-50 value
Method: as §1

[27] = tested on: T-47D; assay: NCI 60 cell assay, breast T-47D; settings: Homo sapiens, T47D, 48 h; T-47D (breast); drug exposure two days, SRB endpoint; read-out: GI-50 value
Method: as §1

Row | Structure (SMILES) | GI50 [1] | GI50 [2] | GI50 [3] | GI50 [4] | GI50 [5] | GI50 [6] | GI50 [7] | GI50 [8] | GI50 [9] | GI50 [10] | GI50 [11] | GI50 [12] | GI50 [13] | GI50 [14] | GI50 [15] | GI50 [16] | GI50 [17] | GI50 [18] | GI50 [19] | GI50 [20] | further results
1 | CC1=C2[C@@H](CC1)[C@]1(C)O[C@@](C(C)C)(C[C@H]1OC(=O)[C@H](C)O)[C@H]2OC(=O)C=Cc1ccccc1 [(Il), (3aR,4S,5R,7R,8S)-5-(((S)-2-hydroxypropanoyl)oxy)-7-isopropyl-1,4-dimethyl-2,3,3a,4,5,6,7,8-octahydro-4,7-epoxyazulen-8-yl cinnamate] | 16 µM | 11 µM | 10 µM | 13 µM | 13 µM | 10 µM | 15 µM | 12 µM | 1.3 µM | 15 µM | 18 µM | 24 µM | 15 µM | 15 µM | 13 µM | 15 µM | 13 µM | 0.35 µM | 0.42 µM | 15 µM | GI50 [21]: 13 µM; GI50 [22]: 7.2 µM; GI50 [23]: 0.045 µM; GI50 [24]: 0.21 µM; GI50 [25]: 17 µM; GI50 [26]: 15 µM; GI50 [27]: 7.2 µM
2 | CC(=O)O[C@@H]1C[C@]2(C(C)C)O[C@@]1(C)[C@@H]1CCC(C)=C1[C@@H]2OC(=O)C=Cc1ccccc1 [(Im), (3aR,4S,5R,7R,8S)-5-acetoxy-7-isopropyl-1,4-dimethyl-2,3,3a,4,5,6,7,8-octahydro-4,7-epoxyazulen-8-yl cinnamate] | 32 µM | 25 µM | 27 µM | 32 µM | 47 µM | 20 µM | 89 µM | 32 µM | 35 µM | 100 µM | 85 µM | 28 µM | 30 µM | 39 µM | 40 µM | 100 µM | 26 µM | 9 µM | 23 µM | 71 µM | GI50 [21]: 85 µM; GI50 [22]: 13 µM; GI50 [23]: 8.9 µM; GI50 [24]: 10 µM; GI50 [25]: 93 µM; GI50 [26]: 49 µM; GI50 [27]: 20 µM
3 | CC1=C2[C@@H](CC1)[C@]1(C)O[C@@](C3CCCCC3)(C[C@H]1OC(=O)CO)[C@H]2OC(=O)C=Cc1ccccc1 [(Iq), (3aR,4S,5R,7R,8S)-7-cyclohexyl-5-(2-hydroxyacetoxy)-1,4-dimethyl-2,3,3a,4,5,6,7,8-octahydro-4,7-epoxyazulen-8-yl cinnamate] | 15 µM | 15 µM | 12 µM | 9 µM | 11 µM | 11 µM | 14 µM | 10 µM | 0.7 µM | 17 µM | 17 µM | 14 µM | 14 µM | 17 µM | 15 µM | 17 µM | 15 µM | 0.1 µM | 0.25 µM | 13 µM | GI50 [21]: 13 µM; GI50 [22]: 10 µM; GI50 [23]: 0.025 µM; GI50 [24]: 0.06 µM; GI50 [25]: 17 µM; GI50 [26]: 18 µM; GI50 [27]: 9.1 µM
